Measured values reported in US20210221848A1, “POLYMYXIN DERIVATIVES AND THEIR USE IN COMBINATION THERAPY TOGETHER WITH DIFFERENT ANTIBIOTICS” (priority 2014, published 2021).
Where two headings read alike, the source gives them in different places.

Legend:
[1] = system: Acinetobacter baumannii NCTC 13301; settings: mouse lungs, A. baumannii NCTC 13301, SC at 2, 6 and 10 h post-infection, 16 h infection model
Procedure: On Day 0, animals were infected with 0.04 mL inoculum by intranasal instillation into mouse nostrils and were kept in an upright position on a string rack for ˜10 min post-infection. […] The vehicle control group (7 mice) was treated with 0.9% saline for injection at 2, 6 and 10 h post-infection.
Sixteen hours after infection, the mice were euthanized humanely. The lungs of each animal were harvested, homogenized and quantitatively cultured onto CLED agar for CFU determination. Decrease of the total CFU compared to control counts at 16 h post-infection was determined for each dose group.

A. baumannii [2] = experiment: MIC in the presence of […] of rifampicin; format: cell-based, Acinetobacter baumannii; settings: A. baumannii ATCC BAA-747, Table 5C
[3] = system: K. pneumoniae strains with elevated MICs to Polymyxin B; experiment: MIC against strains with elevated MICs to Polymyxin B; format: cell-based, Klebsiella pneumoniae; settings: for MIC K. pneumoniae 062: strain 062, elevated MIC to Polymyxin B; for MIC K. pneumoniae 063: strain 063, elevated MIC to Polymyxin B; for MIC K. pneumoniae 064: strain 064, elevated MIC to Polymyxin B; for MIC K. pneumoniae 655: strain 655, elevated MIC to Polymyxin B
Procedure, shortened: (§1)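 Inoculum was a direct suspension of colonies from an 18-24 hour Mueller-Hinton agar plate, adjusted to the 0.5 McFarland standard. Duplicate assays; the lower value was reported when duplicates differed by less than 2-fold, otherwise the run was invalid. Repeat-tested compounds give the modal MIC.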

[4] = system: P. aeruginosa strains with elevated MICs to Polymyxin B; experiment: as above; format: cell-based, Pseudomonas aeruginosa; settings: for MIC P. aeruginosa 065: strain 065, elevated MIC to Polymyxin B; for MIC P. aeruginosa 066: strain 066, elevated MIC to Polymyxin B; for MIC P. aeruginosa 067: strain 067, elevated MIC to Polymyxin B
Procedure, shortened: as §1

P. aeruginosa [5] = system: P. aeruginosa
K. pneumoniae [6] = system: K. pneumoniae
[7] = system: E. coli strains with elevated MICs to Polymyxin B; experiment: MIC against strains with elevated MICs to Polymyxin B; format: cell-based, Escherichia coli; settings: for MIC E. coli 058: strain 058, elevated MIC to Polymyxin B; for MIC E. coli 059: strain 059, elevated MIC to Polymyxin B; for MIC E. coli 060: strain 060, elevated MIC to Polymyxin B; for MIC E. coli 061: strain 061, elevated MIC to Polymyxin B
Procedure, shortened: as §1

HK-2 cell line = experiment: In vitro renal cell toxicity assay (resazurin reduction); settings: HK-2 cell IC50 expressed relative to the value for polymyxin B
Procedure: MICs were determined as described herein. HK-2 cell IC50 values were determined as described herein. Values are reported relative to Polymyxin B.

P. aeruginosa [8] = experiment: MIC in 1:1 (wt:wt) combination with Rifampicin; format: cell-based, Pseudomonas aeruginosa; settings: 1:1 (wt:wt) with Rifampicin, total drug concentration
Procedure: (§2) The inoculum was prepared by making a direct suspension of isolated colonies (selected from an 18-24 hour Mueller-Hinton agar plate) adjusted to the 0.5 McFarland standard. […] The assays were performed in duplicate. […] In cases where the duplicate values varied by less than 2-fold, the lower of the two values is reported. If a variation of greater than 2-fold was observed, the assay was considered non-valid. Several of the compounds were subjected to multiple tests, and where this is the case, the MIC reflects the modal value obtained.
(§3) MIC values (microgram/mL) refer to the total drug concentration (i.e. test agent plus Rifampicin).

P. aeruginosa ATCC 27853 = experiment: In vivo efficacy, thigh infection in mice, IV dosing, 9 h model; parameters: species or system Pseudomonas aeruginosa; settings: mouse thigh
Procedure: Compounds were administered in solution by intravenous (IV) bolus injection into the lateral tail vein. […] At 1 hour post infection, 4 animals were humanely euthanized using pentabarbitone overdose to provide a pre-treatment control group. At 9 hours post infection, the clinical condition of all animals was assessed prior to them being humanely euthanized by pentabarbitone overdose. Animal weight was determined before both thighs were removed and weighed individually. Individual thigh tissue samples were homogenized in ice cold sterile phosphate buffered saline. Thigh homogenates were then quantitatively cultured onto cystine lactose electrolyte deficient (CLED) agar and incubated at 37° C. for 24 hours before colonies were counted.

A. baumannii [9] = system: A. baumannii
E. coli = experiment: MIC in 1:1 (wt:wt) combination with Rifampicin; format: cell-based, Escherichia coli; settings: 1:1 (wt:wt) with Rifampicin, total drug concentration
Procedure: as §2, §3

K. pneumoniae [10] = experiment: MIC in 1:1 (wt:wt) combination with Rifampicin; format: cell-based, Klebsiella pneumoniae; settings: 1:1 (wt:wt) with Rifampicin, total drug concentration
Procedure: as §2, §3

[11] = system: A. baumanii strains with elevated MICs to Polymyxin B; experiment: MIC against strains with elevated MICs to Polymyxin B; format: cell-based, Acinetobacter baumannii
Procedure, shortened: as §1

K. pneumoniae [12] = experiment: MIC in the presence of a fixed concentration (2 μg/mL) of Rifampicin; format: cell-based, Klebsiella pneumoniae; settings: Rifampicin 2 μg/mL, Table 5C

Substance: Polymyxin B [PMB, reference compound]
- Mean log10 CFU reduction vs. control ([1]; 2.6 mg/kg/dose free base): 0.79 log10 CFU
- Mean log10 CFU reduction vs. control ([1]; 8.6 mg/kg/dose free base): 0.58 log10 CFU
- Mean log10 CFU reduction vs. control ([1]; 17.2 mg/kg/dose free base): 0.54 log10 CFU
- Mean log10 CFU reduction vs. control ([1]; 25.8 mg/kg/dose free base): 1.10 log10 CFU
- MIC in combination with Rifampicin, A. baumannii ATCC BAA-747 (A. baumannii [2]): 0.03 micrograms/mL
- MIC K. pneumoniae 062 ([3]; Table 6D): 128 micrograms/mL
- MIC K. pneumoniae 062 ([3]; Table 6F): 128 micrograms/mL
- MIC K. pneumoniae 063 ([3]; Table 6D): 32 micrograms/mL
- MIC K. pneumoniae 063 ([3]; Table 6F): 32 micrograms/mL
- MIC K. pneumoniae 064 ([3]; Table 6D): 8 micrograms/mL
- MIC K. pneumoniae 064 ([3]; Table 6F): 8 micrograms/mL
- MIC K. pneumoniae 655 ([3]; Table 6D): 32 micrograms/mL
- MIC K. pneumoniae 655 ([3]; Table 6F): 32 micrograms/mL
- MIC P. aeruginosa 065 ([4]; Table 6D): 4 micrograms/mL
- MIC P. aeruginosa 065 ([4]; Table 6F): 4 micrograms/mL
- MIC P. aeruginosa 066 ([4]; Table 6D): 8 micrograms/mL
- MIC P. aeruginosa 066 ([4]; Table 6F): 8 micrograms/mL
- MIC P. aeruginosa 067 ([4]; Table 6D): 128 micrograms/mL
- MIC P. aeruginosa 067 ([4]; Table 6F): 128 micrograms/mL
- MIC (P. aeruginosa [5]; P. aeruginosa ATCC 27853): 0.5 µg/mL
- MIC, P. aeruginosa ATCC 27853 (P. aeruginosa [5]; P. aeruginosa ATCC 27853, absence of a second agent, Table 6B): 0.5 micrograms/mL
- MIC (P. aeruginosa [5]; P. aeruginosa CCUG 59347): 0.5 µg/mL
- MIC, P. aeruginosa CCUG 59347 (P. aeruginosa [5]; P. aeruginosa CCUG 59347, absence of a second agent, Table 6B): 0.5 micrograms/mL
- MIC, P. aeruginosa ATCC 27853 (P. aeruginosa [5]; strain ATCC 27853, compound alone): 0.5 micrograms/mL
- MIC, P. aeruginosa CCUG 59347 (P. aeruginosa [5]; strain CCUG 59347, compound alone): 0.5 micrograms/mL
- MIC (K. pneumoniae [6]; K. pneumoniae ATCC 4352): 0.25 µg/mL
- MIC, K. pneumoniae ATCC 4352 (K. pneumoniae [6]; K. pneumoniae ATCC 4352, absence of a second agent, Table 6B): 0.25 micrograms/mL
- MIC (K. pneumoniae [6]; K. pneumoniae ATCC BAA-2146): 0.5 µg/mL
- MIC, K. pneumoniae ATCC BAA-2146 (K. pneumoniae [6]; K. pneumoniae ATCC BAA-2146, absence of a second agent, Table 6B): 0.5 micrograms/mL
- MIC, K. pneumoniae ATCC 4352 (K. pneumoniae [6]; strain ATCC 4352, compound alone): 0.25 micrograms/mL
- MIC, K. pneumoniae ATCC BAA-2146 (K. pneumoniae [6]; strain ATCC BAA-2146, compound alone): 0.5 micrograms/mL
- MIC E. coli 058 ([7]; Table 6D): 4 micrograms/mL
- MIC E. coli 058 ([7]; Table 6F): 4 micrograms/mL
- MIC E. coli 059 ([7]; Table 6D): 4 micrograms/mL
- MIC E. coli 059 ([7]; Table 6F): 4 micrograms/mL
- MIC E. coli 060 ([7]; Table 6D): 4 micrograms/mL
- MIC E. coli 060 ([7]; Table 6F): 4 micrograms/mL
- MIC E. coli 061 ([7]; Table 6D): 16 micrograms/mL
- MIC E. coli 061 ([7]; Table 6F): 16 micrograms/mL
- HK-2 rel to PMB (HK-2 cell line): 1
- MIC in 1:1 combination with rifampicin, P. aeruginosa 063 (P. aeruginosa [8]; P. aeruginosa 063): 16 microgram/mL
- MIC in 1:1 combination with rifampicin, P. aeruginosa 068 (P. aeruginosa [8]; P. aeruginosa 068): 1 microgram/mL
- Log reduction from vehicle (CFU/g) (P. aeruginosa ATCC 27853; dose 0.85 mg/kg drug base IV at 1, 3.5 and 6 h post-infection): 1.19 log10 CFU/g
- Log reduction from vehicle (CFU/g) (P. aeruginosa ATCC 27853; dose 3.4 mg/kg drug base IV at 1, 3.5 and 6 h post-infection): 4.23 log10 CFU/g
- MIC (A. baumannii [9]; A. baumannii ATCC BAA-747): 0.25 µg/mL
- MIC, A. baumannii ATCC BAA-747 (A. baumannii [9]; A. baumannii ATCC BAA-747, absence of a second agent, Table 6B): 0.25 micrograms/mL
- MIC (A. baumannii [9]; A. baumannii NCTC 13424): 0.5 µg/mL
- MIC, A. baumannii NCTC 13424 (A. baumannii [9]; A. baumannii NCTC 13424, absence of a second agent, Table 6B): 0.5 micrograms/mL
- MIC, A. baumannii ATCC BAA-747 (A. baumannii [9]; strain ATCC BAA-747, compound alone): 0.25 micrograms/mL
- MIC, A. baumannii NCTC 13424 (A. baumannii [9]; strain NCTC 13424, compound alone): 0.5 micrograms/mL
- MIC in 1:1 combination with rifampicin, E. coli 058 (E. coli; E. coli 058): 1 microgram/mL
- MIC in 1:1 combination with rifampicin, E. coli 059 (E. coli; E. coli 059): ≤0.5 microgram/mL
- MIC in 1:1 combination with rifampicin, E. coli 060 (E. coli; E. coli 060): 1 microgram/mL
- MIC in 1:1 combination with rifampicin, E. coli ATCC 25922 (E. coli; E. coli ATCC 25922): ≤0.5 microgram/mL
- MIC in 1:1 combination with rifampicin, K. pneumoniae 062 (K. pneumoniae [10]; K. pneumoniae 062): 1 microgram/mL
- MIC in 1:1 combination with rifampicin, K. pneumoniae CCUG 59348 (K. pneumoniae [10]; K. pneumoniae CCUG 59348): 1 microgram/mL
- MIC A. baumannii 053 ([11]; strain 053, elevated MIC to Polymyxin B, Table 6D): 128 micrograms/mL
- MIC A. baumanii 053 ([11]; strain 053, elevated MIC to Polymyxin B, Table 6F): 128 micrograms/mL
- MIC A. baumannii 056 ([11]; strain 056, elevated MIC to Polymyxin B, Table 6D): 32 micrograms/mL
- MIC A. baumanii 056 ([11]; strain 056, elevated MIC to Polymyxin B, Table 6F): 32 micrograms/mL
- MIC A. baumannii 068 ([11]; strain 068, elevated MIC to Polymyxin B, Table 6D): 8 micrograms/mL
- MIC A. baumanii 068 ([11]; strain 068, elevated MIC to Polymyxin B, Table 6F): 8 micrograms/mL
- MIC A. baumannii 070 ([11]; strain 070, elevated MIC to Polymyxin B, Table 6D): 32 micrograms/mL
- MIC A. baumanii 070 ([11]; strain 070, elevated MIC to Polymyxin B, Table 6F): 32 micrograms/mL
- MIC in combination with Rifampicin, K. pneumoniae ATCC 4352 (K. pneumoniae [12]; K. pneumoniae ATCC 4352): 0.06 micrograms/mL
- MIC in combination with Rifampicin, K. pneumoniae ATCC BAA-2146 (K. pneumoniae [12]; K. pneumoniae ATCC BAA-2146): 0.25 micrograms/mL
